Measurements taken from article PMC5797126, “Identification of influenza polymerase inhibitors targeting C-terminal domain of PA through surface plasmon resonance screening” (Scientific Reports, 2018).

Key:
in vitro [1] = conditions: human
influenza RNP = influenza RNP (Influenza A virus, UniProt P15659); assay: cell-based
[2] = test system: influenza virus (A/WSN/33); assay: microbe, parasite or virus in culture; assay type: cell-based; conditions: for IC50: unidentified influenza virus, WSN, MDCK, 24 h, read-out: Viral Yield Reduction Assay IC50
in vitro [3] = conditions: dog
[4] = target: PAC (C-terminal domain of PA, residues 256–716 of A/WSN/33) (Influenza A virus, UniProt P15659); assay: biochemical; assay type: binding, influenza A/WSN/33

Structure (SMILES) | CC50 at 24 h (in vitro [1]) | IC50 (influenza RNP) | IC50 [2] | CC50 at 24 h (in vitro [3]) | inhibition of influenza viral yield (in words) [2] | Kd [4] | cytotoxicity in MDCK cells (in words) (MDCK cells)
O=c1c2ccccc2nc(NCCN2CCNCC2)n1-c1ccccc1 [Compound S1a, 2-[(2-(Piperazino)ethyl)amino]-3-phenylquinazolin-4(3H)-one] | > 100 µM |  |  |  |  |  | 
Cc1ccccc1-n1c(NCCCN2CCOCC2)nc2ccccc2c1=O [Compound S1b, 2-[(3-Morpholinopropyl)amino]-3-(2-methylphenyl)quinazolin-4(3H)-one] | > 100 µM | 87.8 ± 21.8 µM | > 100 µM | > 100 µM |  |  | 
Cc1ccc(-n2c(NCCCN3CCOCC3)nc3ccccc3c2=O)cc1 [Compound S1c, 2-[(3-Morpholinopropyl)amino]-3-(4-methylphenyl)quinazolin-4(3H)-one] | > 100 µM |  |  |  |  |  | 
O=c1c2ccccc2nc(NCCCN2CCOCC2)n1-c1ccc(F)cc1 [Compound S1d, 3-(4-Fluorophenyl)-2-((3-morpholinopropyl)amino)quinazolin-4(3H)-one] | > 100 µM |  |  |  |  |  | 
O=c1c2c(O)c(Cc3ccccc3)c(=O)n(CCO)c2n(-c2ccccc2)c(=O)n1-c1ccccc1 [Compound S2a, 6-benzyl-5-hydroxy-8-(2-hydroxyethyl)-1,3-diphenylpyrido[2,3-d]pyrimidine-2,4,7(1H,3H,8H)-trione] | 84.6 ± 17.3 µM | 9.69 ± 3 µM | 7.74 ± 6.02 µM | > 100 µM | dose-dependent inhibition of influenza virus | 1.77 ± 0.78 µM | slight cytotoxicity at their highest tested concentration
CC(c1ccccc1)c1c(O)c2c(=O)n(-c3ccccc3)c(=O)n(-c3ccccc3)c2[nH]c1=O (centres unmarked) [Compound S2b, 5-hydroxy-1,3-diphenyl-6-(1-phenylethyl)pyrido[2,3-d]pyrimidine-2,4,7(1H,3H,8H)-trione] | > 100 µM | 14.2 ± 3.6 µM | 4.96 ± 3.84 µM | 42.8 ± 9 µM | dose-dependent inhibition of influenza virus | 16.2 ± 8.3 µM | 
CC(c1ccccc1)c1c(O)c2c(=O)n(-c3ccccc3)c(=O)n(-c3ccccc3)c2n(C)c1=O (centres unmarked) [Compound S2c, 5-hydroxy-8-methyl-1,3-diphenyl-6-(1-phenylethyl)pyrido[2,3-d]pyrimidine-2,4,7(1H,3H,8H)-trione] | 97.1 ± 16.1 µM |  |  |  |  |  | 
COc1c(C(C)c2ccccc2)c(=O)n(C)c2c1c(=O)n(-c1ccccc1)c(=O)n2-c1ccccc1 (centres unmarked) [Compound S2d, 5-methoxy-8-methyl-1,3-diphenyl-6-(1-phenylethyl)pyrido[2,3-d]pyrimidine-2,4,7(1H,3H,8H)-trione] | 66.6 ± 6.09 µM | > 12.5 µM | 3.18 ± 2.44 µM | 35.6 ± 9.24 µM | dose-dependent inhibition of influenza virus | > 25 µM | 
CC(=O)n1c(=O)c(C(C)c2ccccc2)c(O)c2c(=O)n(-c3ccccc3)c(=O)n(-c3ccccc3)c21 (centres unmarked) [Compound S2e, 8-acetyl-5-hydroxy-1,3-diphenyl-6-(1-phenylethyl)pyrido[2,3-d]pyrimidine-2,4,7(1H,3H,8H)-trione] | > 100 µM | 6.69 ± 7.49 µM | 5.11 ± 4.22 µM | 53.1 ± 9.25 µM | dose-dependent inhibition of influenza virus | 50.9 ± 25.5 µM | 
Cn1c(=O)c(Nc2ccccc2)c(O)c2c(=O)n(-c3ccccc3)c(=O)n(-c3ccccc3)c21 [Compound S2f, 5-hydroxy-8-methyl-1,3-diphenyl-6-(phenylamino)pyrido[2,3-d]pyrimidine-2,4,7(1H,3H,8H)-trione] | > 100 µM | 62.4 ± 22.4 µM | > 100 µM | > 100 µM | inability to attenuate influenza virus |  | 
